# Test results from patent publication US12698308B2, “Peptide for preventing or treating inflammatory diseases” (AJOU UNIVERSITY INDUSTRY-ACADEMIC COOPERATION FOUNDATION, priority 2021, dated 2026).
# Ends that are not written are not given here.
# What was measured:
# [1] = test system: mice with Behçet's disease; test: Skin symptom improvement in mice with Behçet's disease; format: in vivo; conditions: external agent on skin, 1 μg/mouse once a day for 10 days; FIG. 6
# Protocol: After applying the peptide-including external agent used in the Experimental Example 5 to the skin of mice with Behçet's disease, changes in the symptom improvement were checked. Administration was performed by 1 μg/mouse once a day for 10 days.
# IL-1 beta = test: Genetic analysis via real-time PCR in vitro, cytokine expression in cultured cells; format: cell-based, mouse; conditions: for cytokine IL-1 beta in the lymph node: FIG. 2H; for cytokine IL-1 beta in the spleen: peptide treatment 24 hours, FIG. 2D
# [2] = test system: arthritis model mice (collagen induced arthritis, CIA); test: Ankle thickness in collagen induced arthritis (CIA) mice; format: in vivo, mouse; conditions: at day 30, compared to arthritis mice (control) without receiving peptides; FIGS. 9A-9B
# Protocol: (§1) Collagen was mixed with an adjuvant and injected subcutaneously into the tail twice (Day 1 and Day 11) to prepare arthritis model mice. The adjuvant is a mixture of 17 μL of high-concentration paraffin oil (Fisher, cat. no. 0122-1) and 68 μg (17 μL) of complete Freund adjuvant (CFA; Sigma-Aldrich, cat. no. F5881), which was used by mixing with 34 μg (17 μL) of bovine type II collagen (MD bioproducts cat. no. 804001-Sol). From the day after the second collagen injection (day 12), 1 μg (100 μL) of peptide was administered intramuscularly to the hind legs 10 times (once every 2 days), and mouse peripheral blood cells were isolated to analyze the frequency of Ly6G+ cells via flow cytometry. Peripheral blood cells were isolated from mouse hearts, red blood cells were lysed in ACK buffer (ammonium-chloride-potassium lysing buffer), and then centrifugation was performed to collect only blood cells to be used for antibody staining for the analysis with the flow cytometer. Using Ly6G+ as a neutrophil marker, whether the peptide inhibits a frequency of inflammation-induced neutrophil cells in an arthritis model was determined. Methotrexate (MTX) was used as a control drug.
# Since the thickness of the ankle increases due to edema caused by arthritis, the ankle thickness was measured to determine whether peptide administration may relieve edema caused by inflammation. The ankle thickness was measured with a digital caliper at the thickest part of the ankle.
# TNF-alpha = test: Genetic analysis via real-time PCR in vitro, cytokine expression in cultured cells; format: cell-based, mouse; conditions: for cytokine TNF-alpha in the spleen: peptide treatment 24 hours, FIG. 2C; for cytokine TNF-alpha in the lymph node: FIG. 2G
# Protocol: (§2) While culturing spleen cells isolated from the spleen of 4-week-old male ICR mice weighing 25 g, various types of peptides having lipidized at terminus of the peptides were treated to cells, and changes in cytokine expression were observed via real-time PCR. Spleen cell isolation was performed by cutting out the spleen from mice, placing the spleen on a cell filter, crushing the spleen on a Petri dish through the cell filter using the plunger tip of a syringe, rinsing the cell filter with PBS, and transferring the suspended cells to 15 mL conical tube. Cells were centrifuged at 4° C. and 800×g for 5 minutes. Subsequently, the supernatant was discarded, and the pellets were resuspended in 1 mL of ACK buffer (ammonium-chloride-potassium lysing buffer). After leaving at room temperature for 5 to 10 minutes, […] of PBS at 4° C. was added, and the cells were centrifuged again at 4° C. and 800×g for 5 minutes. The supernatant was discarded again, the pellets were resuspended in 5 mL of culture, and 2×10^6 cells/mL were cultured in DMEM medium. Before culturing spleen cells in an incubator, 1 μg/mL anti-CD3 Ab was coated on the bottom of a culture container, after 24 hours, culture was performed for 3 days in DMEM medium including 1 μg of anti-CD28 Ab, 20 ng of IL-6, 5 ng of TGF beta, and 20 ng of IL-23 per 1 mL of culture medium, and then the peptides were treated, followed by culture for another 24 hours.
# IL-17 = test: as above; format: cell-based, mouse; conditions: for cytokine IL-17 in the lymph node: FIG. 2E; for cytokine IL-17 in the spleen: peptide treatment 24 hours, FIG. 2A
# Protocol: as §2
# ROR-gammaT gene = test: Genetic analysis via real-time PCR in vitro, gene expression in cultured cells; format: cell-based, mouse; conditions: for expression of ROR-gammaT gene in the lymph node: FIG. 2F
# Protocol: as §2
# Ly6G+ (neutrophil) cells = test: Frequency of Ly6G+ (neutrophil) cells in peripheral blood of collagen induced arthritis (CIA) mice; format: in vivo, mouse; conditions: 1 μg intramuscularly 10 times (once every 2 days), FIG. 8
# Protocol: as §1
Substance,skin symptom improvement [1],cytokine IL-1 beta in the lymph node (IL-1 beta),cytokine IL-1 beta in the spleen (IL-1 beta),thickness of the ankle [2],cytokine TNF-alpha in the spleen (TNF-alpha),cytokine IL-17 in the lymph node (IL-17),cytokine IL-17 in the spleen (IL-17),expression of ROR-gammaT gene in the lymph node (ROR-gammaT gene),frequency of Ly6G+ cells (Ly6G+ (neutrophil) cells),cytokine TNF-alpha in the lymph node (TNF-alpha),"expression of ROR-gammaT gene in the spleen (ROR-gammaT gene; spleen, peptide treatment 24 hours, FIG. 2B)"
GCAATCPEAKPREIVECCSTDKCNH (SEQ ID NO: 7) (E4) [Peptide E4],"almost disappeared after 10 days, and the wound healed",,,,,,,,,,
LICPEKYCNKVHTCRNGENICF (SEQ ID NO: 4) (E1) [Peptide E1],the symptom almost disappeared after 10 days,reduced,reduced,significantly reduced,reduced,reduced,reduced,reduced,decreased to a statistically significant level,,
LTCLICPEKYCNKVHTCRNGENICF (SEQ ID NO: 5) (E2) [Peptide E2],improved the skin erythema,,reduced,significantly reduced,reduced,reduced,reduced,reduced,,reduced,
"P1M: P1 peptide (SEQ ID NO: 1) with myristoylation, component of P124-M (LICPEKYCNKVHT; cysteine pairing not given here; also: myristoylation) [Peptide P1M]",,,reduced,,,,,,,,
"P2M: P2 peptide (SEQ ID NO: 2) with myristoylation, component of P124-M (YCNKVHTCRNG; cysteine pairing not given here; also: myristoylation) [Peptide P2M]",,,,,reduced,reduced,reduced,,,,
"P4M: P4 peptide (SEQ ID NO: 3) with myristoylation, component of P124-M (HTCRNGENICF; cysteine pairing not given here; also: myristoylation) [Peptide P4M]",,,reduced,,reduced,reduced,,,,,
TCPEAKPREIVECCSTDKCNH (SEQ ID NO: 6) (E3) [Peptide E3],,reduced,reduced,significantly reduced,reduced,reduced,reduced,reduced,,reduced,reduced
